Results taken from ChEMBL document CHEMBL1137067, “Alpha-1-C-alkyl-1-deoxynojirimycin derivatives as potent and selective inhibitors of intestinal isomaltase: remarkable effect of the alkyl chain length on glycosidase inhibitory profile” (Bioorg Med Chem Lett, 2004).

Legend:
Alpha-glucosidase = molecular target: T1, Alpha-glucosidase (Oryza sativa Japonica Group, UniProt Q9LGC6); assay: Inhibitory activity against alpha-Glucosidase from rice
T1 sequence (Q9LGC6 whole entry): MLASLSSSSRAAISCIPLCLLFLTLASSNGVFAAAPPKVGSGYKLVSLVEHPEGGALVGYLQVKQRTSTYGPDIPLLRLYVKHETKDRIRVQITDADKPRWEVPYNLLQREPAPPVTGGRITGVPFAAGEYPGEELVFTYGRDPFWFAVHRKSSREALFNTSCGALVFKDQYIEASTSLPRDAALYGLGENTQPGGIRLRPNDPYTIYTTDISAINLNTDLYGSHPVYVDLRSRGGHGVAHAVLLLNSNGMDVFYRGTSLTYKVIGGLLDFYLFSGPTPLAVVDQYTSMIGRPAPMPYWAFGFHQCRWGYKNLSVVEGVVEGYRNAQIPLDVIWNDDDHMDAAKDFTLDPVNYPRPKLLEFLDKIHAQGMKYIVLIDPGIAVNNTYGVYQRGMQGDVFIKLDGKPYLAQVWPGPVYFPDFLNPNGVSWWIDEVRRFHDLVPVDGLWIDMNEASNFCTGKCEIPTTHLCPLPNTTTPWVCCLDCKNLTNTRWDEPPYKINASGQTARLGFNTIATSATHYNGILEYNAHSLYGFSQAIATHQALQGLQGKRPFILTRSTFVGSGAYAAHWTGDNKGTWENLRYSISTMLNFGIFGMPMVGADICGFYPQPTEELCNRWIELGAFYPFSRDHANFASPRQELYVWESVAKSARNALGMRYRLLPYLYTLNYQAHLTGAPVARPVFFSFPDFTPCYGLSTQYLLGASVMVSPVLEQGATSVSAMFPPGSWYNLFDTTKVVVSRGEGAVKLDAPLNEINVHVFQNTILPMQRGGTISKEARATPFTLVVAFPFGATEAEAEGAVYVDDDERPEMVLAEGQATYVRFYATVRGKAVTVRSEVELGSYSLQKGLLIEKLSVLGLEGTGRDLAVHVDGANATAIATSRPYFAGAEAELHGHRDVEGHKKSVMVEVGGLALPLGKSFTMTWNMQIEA

Beta-glucosidase A = Beta-glucosidase A (Caldicellulosiruptor saccharolyticus, UniProt P10482); assay: Inhibitory activity against beta-Glucosidase from Caldocellum saccharolyticum
[1] = molecular target: T2, Sucrase-isomaltase, intestinal (Rattus norvegicus, UniProt P23739); assay: Inhibition of rat intestinal isomaltase using disaccharide
[2] = Inhibitory activity against alpha-Glucosidase from Yeast; set-up: species or system Saccharomyces cerevisiae
[3] = molecular target: T2, Sucrase-isomaltase, intestinal; assay: Inhibition of rat intestinal sucrase using disaccharide
[4] = molecular target: T2, Sucrase-isomaltase, intestinal; assay: Inhibition of rat intestinal maltase using disaccharide
Saccharomyces cerevisiae = assay: Inhibitory activity against alpha-Glucosidase from Yeast at 1000 uM
[5] = molecular target: Beta-glucosidase A (Caldicellulosiruptor saccharolyticus) (UniProt P10482); assay: Inhibitory activity against beta-Glucosidase from Caldocellum saccharolyticum at 1000 uM
Beta-glucosidase A (Caldicellulosiruptor saccharolyticus), sequence (P10482 whole entry): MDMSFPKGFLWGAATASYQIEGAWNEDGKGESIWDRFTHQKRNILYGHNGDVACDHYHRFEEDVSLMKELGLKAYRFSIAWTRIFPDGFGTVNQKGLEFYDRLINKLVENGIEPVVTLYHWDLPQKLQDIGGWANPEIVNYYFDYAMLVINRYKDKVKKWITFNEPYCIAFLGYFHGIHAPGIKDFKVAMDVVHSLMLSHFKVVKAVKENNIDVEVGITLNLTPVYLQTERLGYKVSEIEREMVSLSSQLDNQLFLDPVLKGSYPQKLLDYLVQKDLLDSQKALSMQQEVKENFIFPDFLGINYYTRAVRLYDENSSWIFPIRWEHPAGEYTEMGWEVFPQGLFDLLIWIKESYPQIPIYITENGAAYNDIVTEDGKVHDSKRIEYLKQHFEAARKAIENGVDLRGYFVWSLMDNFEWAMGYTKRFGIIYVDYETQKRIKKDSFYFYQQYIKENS

Beta-glucosidase A, sequence (P10482 whole entry): as above
T2 sequence (P23739 1-1013 limits assumed): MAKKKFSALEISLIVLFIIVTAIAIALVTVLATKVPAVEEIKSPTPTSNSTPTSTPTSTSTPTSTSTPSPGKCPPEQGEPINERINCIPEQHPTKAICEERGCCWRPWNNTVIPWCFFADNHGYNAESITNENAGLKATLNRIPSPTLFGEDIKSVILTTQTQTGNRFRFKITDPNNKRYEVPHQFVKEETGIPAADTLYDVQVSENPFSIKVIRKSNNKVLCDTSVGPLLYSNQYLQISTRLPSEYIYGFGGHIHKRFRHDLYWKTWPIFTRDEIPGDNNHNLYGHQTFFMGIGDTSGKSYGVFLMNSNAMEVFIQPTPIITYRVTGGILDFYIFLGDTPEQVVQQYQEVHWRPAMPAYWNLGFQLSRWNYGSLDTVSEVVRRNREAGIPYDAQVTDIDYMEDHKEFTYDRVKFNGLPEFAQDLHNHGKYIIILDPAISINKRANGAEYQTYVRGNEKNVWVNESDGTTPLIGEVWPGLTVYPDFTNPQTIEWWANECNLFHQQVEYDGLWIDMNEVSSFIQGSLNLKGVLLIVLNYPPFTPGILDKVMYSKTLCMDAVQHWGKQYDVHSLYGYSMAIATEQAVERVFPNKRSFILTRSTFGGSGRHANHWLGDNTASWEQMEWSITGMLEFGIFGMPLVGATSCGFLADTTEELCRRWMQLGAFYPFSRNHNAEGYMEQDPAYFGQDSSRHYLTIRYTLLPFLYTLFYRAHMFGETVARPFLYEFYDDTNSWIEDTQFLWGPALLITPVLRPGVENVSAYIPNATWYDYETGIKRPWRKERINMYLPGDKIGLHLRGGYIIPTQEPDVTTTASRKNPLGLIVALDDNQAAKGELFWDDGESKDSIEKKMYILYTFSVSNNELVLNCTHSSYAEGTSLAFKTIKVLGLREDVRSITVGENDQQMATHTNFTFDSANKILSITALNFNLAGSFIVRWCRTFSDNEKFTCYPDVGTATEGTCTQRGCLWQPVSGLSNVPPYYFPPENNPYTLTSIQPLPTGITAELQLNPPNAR
T2 sequence (P23739 1014-1841 limits assumed): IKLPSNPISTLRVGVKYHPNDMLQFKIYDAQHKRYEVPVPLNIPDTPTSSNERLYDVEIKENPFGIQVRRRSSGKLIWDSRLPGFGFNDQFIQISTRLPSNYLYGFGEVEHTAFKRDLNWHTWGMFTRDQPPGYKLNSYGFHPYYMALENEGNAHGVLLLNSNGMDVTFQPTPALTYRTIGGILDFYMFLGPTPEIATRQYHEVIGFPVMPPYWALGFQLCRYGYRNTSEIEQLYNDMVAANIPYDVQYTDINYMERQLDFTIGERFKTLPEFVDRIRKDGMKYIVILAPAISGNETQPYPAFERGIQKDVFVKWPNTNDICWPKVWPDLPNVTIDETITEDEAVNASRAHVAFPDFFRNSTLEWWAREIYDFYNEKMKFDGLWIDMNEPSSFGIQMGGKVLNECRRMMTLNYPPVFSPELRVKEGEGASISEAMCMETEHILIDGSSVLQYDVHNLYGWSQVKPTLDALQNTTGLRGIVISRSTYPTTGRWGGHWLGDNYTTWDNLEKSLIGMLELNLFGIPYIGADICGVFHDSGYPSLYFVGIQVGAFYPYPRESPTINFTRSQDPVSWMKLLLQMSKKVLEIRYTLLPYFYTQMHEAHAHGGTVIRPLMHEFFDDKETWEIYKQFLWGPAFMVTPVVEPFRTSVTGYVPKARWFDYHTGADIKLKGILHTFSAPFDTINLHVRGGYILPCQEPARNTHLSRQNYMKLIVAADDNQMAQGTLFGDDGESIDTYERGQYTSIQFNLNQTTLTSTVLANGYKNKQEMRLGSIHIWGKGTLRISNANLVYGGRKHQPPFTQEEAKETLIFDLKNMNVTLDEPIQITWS

SMILES	IC50 (Alpha-glucosidase)	IC50 (Beta-glucosidase A)	IC50 [1]	IC50 [2]	IC50 [3]	IC50 [4]	inhibition (Saccharomyces cerevisiae)	inhibition [5]
CCCCCCCCCC1NC(CO)C(O)C(O)C1O (stereo not given)	1.5 µM	80 µM	0.0035 µM	56 µM	2.5 µM	4 µM		
CCCCN1C[C@H](O)[C@@H](O)[C@H](O)[C@H]1CO	0.42 µM						< 50%	< 50%
CCCCCCCCC1NC(CO)C(O)C(O)C1O (stereo not given)	0.59 µM	110 µM	0.09 µM	25 µM	1.5 µM	1.9 µM		
CCCCCCN1CC(O)C(O)C(O)C1CO (stereo not given)	0.7 µM	450 µM	0.45 µM		0.45 µM	3.7 µM	< 50%	
OC[C@H]1NC[C@H](O)[C@@H](O)[C@@H]1O [DUVOGLUSTAT]				190 µM				
CCCCCCCCN1CC(O)C(O)C(O)C1CO (stereo not given)	0.08 µM	160 µM	0.28 µM		0.66 µM	1.5 µM	< 50%	
CCCC1NC(CO)C(O)C(O)C1O (stereo not given)	15 µM		0.53 µM	630 µM	39 µM	43 µM		
CCCCCCC1NC(CO)C(O)C(O)C1O (stereo not given)	0.8 µM		0.31 µM	52 µM	1.2 µM	3.5 µM		< 50%
CCCCCCCCCN1CC(O)C(O)C(O)C1CO (stereo not given)	0.08 µM					1.3 µM	< 50%	
CCCN1CC(O)C(O)C(O)C1CO (stereo not given)	2 µM	100 µM	1.4 µM		2 µM	7 µM	< 50%	
CCCC[C@H]1N[C@@H](CO)[C@@H](O)[C@H](O)[C@@H]1O	11 µM		0.15 µM	465 µM	3.6 µM	12 µM		< 50%
CCCC[C@@H]1N[C@@H](CO)[C@@H](O)[C@H](O)[C@@H]1O	61 µM		115 µM		155 µM	210 µM	< 50%	< 50%
